Test results reported in ChEMBL document CHEMBL1201862, “PubChem BioAssay data set” (2004).
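Assay format: 96-well plates, 48-hour exposure. Here, GI50 denotes the concentration required for 50% inhibition of growth.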 Active and inactive are the calls of the source. No stated cut-off is given here; in the data, active = GI50 up to about 1.1 µM and inactive = higher.

Tests used:
Experiment in all cases: DTP human tumour cell line panel, 48 h
[1] = test system: SK-MEL-2
[2] = test system: NCI-H23
[3] = test system: SNB-75
[4] = test system: LXFL 529
[5] = test system: SK-MEL-28
[6] = test system: SK-MEL-5
[7] = test system: M19-MEL
[8] = test system: ACHN
[9] = test system: RPMI-8226
[10] = test system: TK-10
[11] = test system: COLO 205
[12] = test system: HCT-15
[13] = test system: DMS-273
[14] = test system: DLD-1
[15] = test system: UACC-62
[16] = test system: EKVX
[17] = test system: M14
[18] = test system: SF-295
[19] = test system: HCT-116
[20] = test system: 786-0
[21] = test system: SN12C
[22] = test system: HOP-62
[23] = test system: OVCAR-5
[24] = test system: KM-20L2
[25] = test system: K562
[26] = test system: LOX IMVI
[27] = test system: Malme-3M
[28] = test system: HL-60
[29] = test system: UO-31
[30] = test system: SW-620
[31] = test system: OVCAR-4
[32] = test system: HOP-18
[33] = test system: U-251
[34] = test system: SF-268
[35] = test system: DMS-114
[36] = test system: A498
[37] = test system: NCI-H460
[38] = test system: SNB-19
[39] = test system: SK-OV-3
[40] = test system: NCI-H522
[41] = test system: OVCAR-3
[42] = test system: NCI-H226
[43] = test system: CCRF-CEM
[44] = test system: RXF 631
[45] = test system: OVCAR-8
[46] = test system: IGROV-1
[47] = test system: HCC 2998
[48] = test system: A549
[49] = test system: KM12
[50] = test system: MOLT-4
[51] = test system: DU-145
[52] = test system: UACC-257
[53] = test system: MCF7
[54] = test system: NCI/ADR-RES
[55] = test system: SNB-78
[56] = test system: SF-539
[57] = test system: SR
[58] = test system: XF498
[59] = test system: T47D
[60] = test system: HOP-92
[61] = test system: BT-549
[62] = test system: HT-29
[63] = test system: MDA-N
[64] = test system: MDA-MB-231
[65] = test system: RXF 393
[66] = test system: MDA-MB-435
[67] = test system: PC-3
[68] = test system: Hs-578T
[69] = test system: CAKI-1

## N=C(N)NCCCC(Nc1c2ccccc2[n+]([O-])c2ccccc12)C(=O)O (stereo not drawn)
[1]
  GI50: 88.3 µM (inactive)
[2]
  GI50: 34.6 µM (inactive)
[3]
  GI50: 34.8 µM (inactive)
[4]
  GI50: 22.5 µM (inactive)
[5]
  GI50: 27.2 µM (inactive)
[6]
  GI50: 22.6 µM (inactive)
[7]
  GI50: 44.7 µM (inactive)
[8]
  GI50: 23.1 µM (inactive)
[9]
  GI50: 10.4 µM (inactive)
[10]
  GI50: > 100 µM (inactive)
[11]
  GI50: 27.3 µM (inactive)
[12]
  GI50: 36.8 µM
[13]
  GI50: 40.5 µM (inactive)
[14]
  GI50: 28.4 µM (inactive)
[15]
  GI50: 42.5 µM (inactive)
[16]
  GI50: 96.6 µM (inactive)
[17]
  GI50: 73.6 µM (inactive)
[18]
  GI50: > 100 µM (inactive)
[19]
  GI50: 24.9 µM (inactive)
[20]
  GI50: 67.5 µM (inactive)
[21]
  GI50: 44.1 µM (inactive)
[22]
  GI50: > 100 µM (inactive)
[23]
  GI50: 56.5 µM (inactive)
[24]
  GI50: 95.7 µM (inactive)
[25]
  GI50: 27 µM (inactive)
[26]
  GI50: 37.3 µM (inactive)
[27]
  GI50: 39.4 µM (inactive)
[28]
  GI50: 14.8 µM (inactive)
[29]
  GI50: 30.8 µM (inactive)
[30]
  GI50: 59.2 µM (inactive)
[31]
  GI50: 65.5 µM (inactive)
[32]
  GI50: 33.3 µM (inactive)
[33]
  GI50: 72.3 µM (inactive)
[34]
  GI50: 56.4 µM (inactive)
[35]
  GI50: 23.6 µM (inactive)
[36]
  GI50: > 100 µM (inactive)
[37]
  GI50: 46 µM (inactive)
[38]
  GI50: 64 µM (inactive)
[39]
  GI50: > 100 µM (inactive)
[40]
  GI50: 29 µM (inactive)
[41]
  GI50: 63.4 µM (inactive)
[42]
  GI50: 70.6 µM (inactive)
[43]
  GI50: 33.4 µM (inactive)
[44]
  GI50: > 100 µM (inactive)
[45]
  GI50: 31.6 µM (inactive)
[46]
  GI50: > 100 µM (inactive)
[47]
  GI50: 27.2 µM (inactive)
[48]
  GI50: > 100 µM (inactive)
[49]
  GI50: 68.4 µM (inactive)
[50]
  GI50: 37.8 µM (inactive)

## CC(=O)NC(CCCCN(Cc1ccccc1)C(=O)N(CCCl)N=O)C(=O)NCc1ccccc1 (stereo not drawn)
[1]
  GI50: 44.8 µM (inactive)
[2]
  GI50: 27.7 µM (inactive)
[3]
  GI50: 19.5 µM (inactive)
[4]
  GI50: > 100 µM (inactive)
[5]
  GI50: 45.7 µM (inactive)
[6]
  GI50: > 100 µM (inactive)
[7]
  GI50: > 67.3 µM (inactive)
[8]
  GI50: 14.3 µM (inactive)
[51]
  GI50: 25.7 µM (inactive)
[52]
  GI50: 24.3 µM (inactive)
[9]
  GI50: 41.7 µM (inactive)
[53]
  GI50: 16.3 µM (inactive)
[10]
  GI50: 44.8 µM (inactive)
[11]
  GI50: 42.2 µM (inactive)
[12]
  GI50: > 60.8 µM
[13]
  GI50: > 35.8 µM (inactive)
[14]
  GI50: > 47.9 µM (inactive)
[15]
  GI50: 3.15 µM (inactive)
[16]
  GI50: 61.9 µM (inactive)
[17]
  GI50: 41.7 µM (inactive)
[18]
  GI50: 7.21 µM (inactive)
[54]
  GI50: 14.5 µM (inactive)
[19]
  GI50: > 49.5 µM (inactive)
[55]
  GI50: > 100 µM (inactive)
[20]
  GI50: 0.895 µM (active)
[21]
  GI50: 34.8 µM (inactive)
[56]
  GI50: 3.38 µM (inactive)
[57]
  GI50: 1.1 µM (active)
[58]
  GI50: > 34.4 µM (inactive)
[59]
  GI50: 14.5 µM (inactive)
[22]
  GI50: 17 µM (inactive)
[23]
  GI50: > 67.6 µM (inactive)
[24]
  GI50: > 52.8 µM (inactive)
[60]
  GI50: 33 µM (inactive)
[25]
  GI50: 36.6 µM (inactive)
[26]
  GI50: 22.2 µM (inactive)
[61]
  GI50: 21.3 µM (inactive)
[27]
  GI50: 37.5 µM (inactive)
[62]
  GI50: 42 µM (inactive)
[28]
  GI50: 12.4 µM (inactive)
[29]
  GI50: 34.4 µM (inactive)
[30]
  GI50: 18.5 µM (inactive)
[63]
  GI50: 14.9 µM (inactive)
[64]
  GI50: 21.9 µM (inactive)
[31]
  GI50: 68.1 µM (inactive)
[32]
  GI50: 25.9 µM (inactive)
[33]
  GI50: 11.6 µM (inactive)
[34]
  GI50: 3.48 µM (inactive)
[35]
  GI50: > 100 µM (inactive)
[36]
  GI50: > 100 µM (inactive)
[37]
  GI50: 2.22 µM (inactive)
[65]
  GI50: 14.7 µM (inactive)
[38]
  GI50: 16.7 µM (inactive)
[66]
  GI50: 35.1 µM (inactive)
[39]
  GI50: > 54.3 µM (inactive)
[67]
  GI50: > 35.5 µM (inactive)
[40]
  GI50: 39 µM (inactive)
[41]
  GI50: 60.8 µM (inactive)
[42]
  GI50: 43.1 µM (inactive)
[43]
  GI50: 17.8 µM (inactive)
[68]
  GI50: 22.2 µM (inactive)
[45]
  GI50: 17.4 µM (inactive)
[46]
  GI50: 39.7 µM (inactive)
[47]
  GI50: > 100 µM (inactive)
[48]
  GI50: 22.1 µM (inactive)
[49]
  GI50: 38.5 µM (inactive)
[69]
  GI50: > 26.8 µM (inactive)
[50]
  GI50: 14.3 µM (inactive)
